Measurements: patent US10131652B2, “Pyrimidinyloxy benzene derivatives as herbicides” (E. I. DU PONT DE NEMOURS AND COMPANY, priority 2014, dated 2018)

Assays:
Assay in all cases: Test F pre-/postemergence plant response
Type in all cases: in vivo
Settings in all cases: scale 0 to 100
[1] = tested on: johnsongrass (Sorghum halepense)
How it was run: (§1)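 In a greenhouse, compounds carried in a non-phytotoxic surfactant-containing solvent mixture were applied to soil at planting and to young 1- to 4-leaf plants. About two to three weeks (14 to 21 days) afterward, each species was compared with controls and rated visually from 0 to 100.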

[2] = tested on: yellow nutsedge (Cyperus esculentus)
How it was run: as §1

soybean (Glycine max) = tested on: soybean (Glycine max)
How it was run: as §1

[3] = tested on: surinam grass (Brachiaria decumbens)
How it was run: as §1

[4] = tested on: hairy beggarticks (Bidens pilosa)
How it was run: as §1

[5] = tested on: arrowleaf sida (Sida rhombifolia)
How it was run: as §1

[6] = tested on: dayflower (Virginia (VA) dayflower, Commelina virginica)
How it was run: as §1

[7] = tested on: large (Lg) crabgrass (Digitaria sanguinalis)
How it was run: as §1

[8] = tested on: giant foxtail (Setaria faberii)
How it was run: as §1

[9] = tested on: barnyardgrass (Echinochloa crus-galli)
How it was run: as §1

[10] = tested on: field bindweed (Convolvulus arvensis)
How it was run: as §1

[11] = tested on: velvetleaf (Abutilon theophrasti)
How it was run: as §1

[12] = tested on: sandbur (southern sandbur, Cenchrus echinatus)
How it was run: as §1

[13] = tested on: wild poinsettia (Euphorbia heterophylla)
How it was run: as §1

[14] = tested on: waterhemp (common waterhemp, Amaranthus rudis)
How it was run: as §1

[15] = tested on: goosegrass (Eleusine indica)
How it was run: as §1

For `Cc1cc(-c2ccccc2Oc2ncc(Cl)cn2)on1` [Compound 58], the “Plant response rating, Johnsongrass” value ([1]; 8 g ai/ha Preemergence) was 0, the “Plant response rating, Johnsongrass” value ([1]; 16 g ai/ha Preemergence) was 0 and the “Plant response rating, Johnsongrass” value ([1]; 31 g ai/ha Preemergence) was 0. For the same compound, the “Plant response rating, Johnsongrass” value ([1]; 125 g ai/ha Preemergence) was 20, the “Plant response rating, Johnsongrass” value ([1]; Preemergence) was 0 and the “Plant response rating, Nutsedge, Yellow” value ([2]; 8 g ai/ha Preemergence) was 0. For the same compound, the “Plant response rating, Nutsedge, Yellow” value ([2]; 16 g ai/ha Preemergence) was 0, the “Plant response rating, Nutsedge, Yellow” value ([2]; 31 g ai/ha Preemergence) was 0 and the “Plant response rating, Nutsedge, Yellow” value ([2]; 125 g ai/ha Preemergence) was 0. The “Plant response rating, Nutsedge, Yellow” value ([2]; Preemergence) was 0, the “Plant response rating, Soybean” value (soybean (Glycine max); 8 g ai/ha Postemergence) was 50 and the “Plant response rating, Soybean” value (soybean (Glycine max); 8 g ai/ha Preemergence) was 0. For the same compound, the “Plant response rating, Soybean” value (soybean (Glycine max); 16 g ai/ha Postemergence) was 50, the “Plant response rating, Soybean” value (soybean (Glycine max); 16 g ai/ha Preemergence) was 10 and the “Plant response rating, Soybean” value (soybean (Glycine max); 31 g ai/ha Postemergence) was 70. The “Plant response rating, Soybean” value (soybean (Glycine max); 31 g ai/ha Preemergence) was 20, the “Plant response rating, Soybean” value (soybean (Glycine max); 62 g ai/ha Postemergence) was 90 and the “Plant response rating, Soybean” value (soybean (Glycine max); 125 g ai/ha Postemergence) was 95. The “Plant response rating, Soybean” value (soybean (Glycine max); 125 g ai/ha Preemergence) was 75, the “Plant response rating, Soybean” value (soybean (Glycine max); Preemergence) was 35 and the “Plant response rating, Surinam Grass” value ([3]; 8 g ai/ha Preemergence) was 0. For the same compound, the “Plant response rating, Surinam Grass” value ([3]; 16 g ai/ha Preemergence) was 0, the “Plant response rating, Surinam Grass” value ([3]; 31 g ai/ha Preemergence) was 0 and the “Plant response rating, Surinam Grass” value ([3]; 125 g ai/ha Preemergence) was 0. For the same compound, the “Plant response rating, Surinam Grass” value ([3]; Preemergence) was 0, the “Plant response rating, Beggarticks” value ([4]; 8 g ai/ha Postemergence) was 40 and the “Plant response rating, Beggarticks” value ([4]; 8 g ai/ha Preemergence) was 0. The “Plant response rating, Beggarticks” value ([4]; 16 g ai/ha Postemergence) was 40, the “Plant response rating, Beggarticks” value ([4]; 16 g ai/ha Preemergence) was 0 and the “Plant response rating, Beggarticks” value ([4]; 31 g ai/ha Postemergence) was 50. The “Plant response rating, Beggarticks” value ([4]; 31 g ai/ha Preemergence) was 0, the “Plant response rating, Beggarticks” value ([4]; 62 g ai/ha Postemergence) was 50 and the “Plant response rating, Beggarticks” value ([4]; 62 g ai/ha Preemergence) was 10. The “Plant response rating, Beggarticks” value ([4]; 125 g ai/ha Postemergence) was 65, the “Plant response rating, Beggarticks” value ([4]; 125 g ai/ha Preemergence) was 20 and the “Plant response rating, Arrowleaf Sida” value ([5]; 8 g ai/ha Postemergence) was 50. The “Plant response rating, Arrowleaf Sida” value ([5]; 8 g ai/ha Preemergence) was 20, the “Plant response rating, Arrowleaf Sida” value ([5]; 16 g ai/ha Postemergence) was 70 and the “Plant response rating, Arrowleaf Sida” value ([5]; 16 g ai/ha Preemergence) was 0. The “Plant response rating, Arrowleaf Sida” value ([5]; 31 g ai/ha Postemergence) was 60, the “Plant response rating, Arrowleaf Sida” value ([5]; 31 g ai/ha Preemergence) was 35 and the “Plant response rating, Arrowleaf Sida” value ([5]; 62 g ai/ha Postemergence) was 75. The “Plant response rating, Arrowleaf Sida” value ([5]; 62 g ai/ha Preemergence) was 75, the “Plant response rating, Arrowleaf Sida” value ([5]; 125 g ai/ha Postemergence) was 90 and the “Plant response rating, Arrowleaf Sida” value ([5]; 125 g ai/ha Preemergence) was 98. The “Plant response rating, Dayflower, VA” value ([6]; 8 g ai/ha Postemergence) was 5, the “Plant response rating, Dayflower, VA” value ([6]; 8 g ai/ha Preemergence) was 0 and the “Plant response rating, Dayflower, VA” value ([6]; 16 g ai/ha Postemergence) was 5. For the same compound, the “Plant response rating, Dayflower, VA” value ([6]; 16 g ai/ha Preemergence) was 0, the “Plant response rating, Dayflower, VA” value ([6]; 31 g ai/ha Postemergence) was 10 and the “Plant response rating, Dayflower, VA” value ([6]; 31 g ai/ha Preemergence) was 0. For the same compound, the “Plant response rating, Dayflower, VA” value ([6]; 62 g ai/ha Postemergence) was 20, the “Plant response rating, Dayflower, VA” value ([6]; 125 g ai/ha Postemergence) was 10 and the “Plant response rating, Dayflower, VA” value ([6]; 125 g ai/ha Preemergence) was 80. The “Plant response rating, Crabgrass, Large” value ([7]; 8 g ai/ha Preemergence) was 0, the “Plant response rating, Crabgrass, Large” value ([7]; 16 g ai/ha Preemergence) was 20 and the “Plant response rating, Crabgrass, Large” value ([7]; 31 g ai/ha Preemergence) was 50. The “Plant response rating, Crabgrass, Large” value ([7]; 62 g ai/ha Preemergence) was 65, the “Plant response rating, Crabgrass, Large” value ([7]; 125 g ai/ha Preemergence) was 80 and the “Plant response rating, Foxtail, Giant” value ([8]; 8 g ai/ha Preemergence) was 0. The “Plant response rating, Foxtail, Giant” value ([8]; 16 g ai/ha Preemergence) was 0, the “Plant response rating, Foxtail, Giant” value ([8]; 31 g ai/ha Preemergence) was 0 and the “Plant response rating, Foxtail, Giant” value ([8]; 62 g ai/ha Preemergence) was 0. For the same compound, the “Plant response rating, Foxtail, Giant” value ([8]; 125 g ai/ha Preemergence) was 40, the “Plant response rating, Barnyardgrass” value ([9]; 8 g ai/ha Postemergence) was 0 and the “Plant response rating, Barnyardgrass” value ([9]; 8 g ai/ha Preemergence) was 0. For the same compound, the “Plant response rating, Barnyardgrass” value ([9]; 16 g ai/ha Postemergence) was 0, the “Plant response rating, Barnyardgrass” value ([9]; 16 g ai/ha Preemergence) was 0 and the “Plant response rating, Barnyardgrass” value ([9]; 31 g ai/ha Postemergence) was 0. For the same compound, the “Plant response rating, Barnyardgrass” value ([9]; 31 g ai/ha Preemergence) was 0, the “Plant response rating, Barnyardgrass” value ([9]; 62 g ai/ha Postemergence) was 0 and the “Plant response rating, Barnyardgrass” value ([9]; 62 g ai/ha Preemergence) was 0. For the same compound, the “Plant response rating, Barnyardgrass” value ([9]; 125 g ai/ha Postemergence) was 5, the “Plant response rating, Barnyardgrass” value ([9]; 125 g ai/ha Preemergence) was 15 and the “Plant response rating, Field Bindweed” value ([10]; 8 g ai/ha Postemergence) was 10. The “Plant response rating, Field Bindweed” value ([10]; 8 g ai/ha Preemergence) was 0, the “Plant response rating, Field Bindweed” value ([10]; 16 g ai/ha Postemergence) was 10 and the “Plant response rating, Field Bindweed” value ([10]; 16 g ai/ha Preemergence) was 0. For the same compound, the “Plant response rating, Field Bindweed” value ([10]; 31 g ai/ha Postemergence) was 20, the “Plant response rating, Field Bindweed” value ([10]; 31 g ai/ha Preemergence) was 0 and the “Plant response rating, Field Bindweed” value ([10]; 62 g ai/ha Postemergence) was 30. The “Plant response rating, Field Bindweed” value ([10]; 62 g ai/ha Preemergence) was 0, the “Plant response rating, Field Bindweed” value ([10]; 125 g ai/ha Postemergence) was 50 and the “Plant response rating, Field Bindweed” value ([10]; 125 g ai/ha Preemergence) was 0. The “Plant response rating, Velvetleaf” value ([11]; 8 g ai/ha Preemergence) was 20, the “Plant response rating, Velvetleaf” value ([11]; 16 g ai/ha Preemergence) was 70 and the “Plant response rating, Velvetleaf” value ([11]; 31 g ai/ha Preemergence) was 100. For the same compound, the “Plant response rating, Velvetleaf” value ([11]; 125 g ai/ha Preemergence) was 100, the “Plant response rating, Velvetleaf” value ([11]; Preemergence) was 100 and the “Plant response rating, Sandbur” value ([12]; 8 g ai/ha Postemergence) was 0. The “Plant response rating, Sandbur” value ([12]; 8 g ai/ha Preemergence) was 0, the “Plant response rating, Sandbur” value ([12]; 16 g ai/ha Postemergence) was 0 and the “Plant response rating, Sandbur” value ([12]; 16 g ai/ha Preemergence) was 0. For the same compound, the “Plant response rating, Sandbur” value ([12]; 31 g ai/ha Postemergence) was 0, the “Plant response rating, Sandbur” value ([12]; 31 g ai/ha Preemergence) was 0 and the “Plant response rating, Sandbur” value ([12]; 62 g ai/ha Postemergence) was 0. For the same compound, the “Plant response rating, Sandbur” value ([12]; 125 g ai/ha Postemergence) was 10, the “Plant response rating, Sandbur” value ([12]; 125 g ai/ha Preemergence) was 0 and the “Plant response rating, Sandbur” value ([12]; Preemergence) was 0. For the same compound, the “Plant response rating, Poinsettia, Wild” value ([13]; 8 g ai/ha Postemergence) was 30, the “Plant response rating, Poinsettia, Wild” value ([13]; 8 g ai/ha Preemergence) was 0 and the “Plant response rating, Poinsettia, Wild” value ([13]; 16 g ai/ha Postemergence) was 30. The “Plant response rating, Poinsettia, Wild” value ([13]; 16 g ai/ha Preemergence) was 0, the “Plant response rating, Poinsettia, Wild” value ([13]; 31 g ai/ha Postemergence) was 60 and the “Plant response rating, Poinsettia, Wild” value ([13]; 31 g ai/ha Preemergence) was 20. The “Plant response rating, Poinsettia, Wild” value ([13]; 62 g ai/ha Postemergence) was 50, the “Plant response rating, Poinsettia, Wild” value ([13]; 125 g ai/ha Postemergence) was 60 and the “Plant response rating, Poinsettia, Wild” value ([13]; 125 g ai/ha Preemergence) was 20. For the same compound, the “Plant response rating, Poinsettia, Wild” value ([13]; Preemergence) was 20, the “Plant response rating, Waterhemp” value ([14]; 8 g ai/ha Postemergence) was 65 and the “Plant response rating, Waterhemp” value ([14]; 8 g ai/ha Preemergence) was 20. The “Plant response rating, Waterhemp” value ([14]; 16 g ai/ha Postemergence) was 60, the “Plant response rating, Waterhemp” value ([14]; 16 g ai/ha Preemergence) was 75 and the “Plant response rating, Waterhemp” value ([14]; 31 g ai/ha Postemergence) was 65. The “Plant response rating, Waterhemp” value ([14]; 31 g ai/ha Preemergence) was 75, the “Plant response rating, Waterhemp” value ([14]; 62 g ai/ha Postemergence) was 80 and the “Plant response rating, Waterhemp” value ([14]; 125 g ai/ha Postemergence) was 90. The “Plant response rating, Waterhemp” value ([14]; 125 g ai/ha Preemergence) was 100, the “Plant response rating, Waterhemp” value ([14]; Preemergence) was 90 and the “Plant response rating, Goosegrass” value ([15]; 8 g ai/ha Preemergence) was 0. For the same compound, the “Plant response rating, Goosegrass” value ([15]; 16 g ai/ha Preemergence) was 0, the “Plant response rating, Goosegrass” value ([15]; 31 g ai/ha Preemergence) was 5 and the “Plant response rating, Goosegrass” value ([15]; 125 g ai/ha Preemergence) was 75. For the same compound, the “Plant response rating, Goosegrass” value ([15]; Preemergence) was 5.
